Measured values: PubChem BioAssay AID1963825 (Molecular Pharmacology Branch, DTP, NCI, 2024)
pIC50: −log10 of the molar value. Where “and” joins values, the source holds several entries; their conditions need not be identical. Identical values can stand only once.

Assay: Anticancer human tumor 997537-175-T-J1-PDC patient-derived colon adenocarcinoma cell line growth inhibition [POLQ]
Settings: 997537-175-T-J1-PDC complex spheroid viability, combination with POLQ inhibitors; for viability, T/C: stronger effect = lower value; for pIC50: curve of compound
Description: Multicellular complex tumor spheroid response to Polymerase (POL) inhibitors (novobiocin, ART-558, RP6685) in combination with a variety of drugs and investigational agents in selected tumor cell lines
The POL inhibitors (novobiocin, ART-558, and RP6685) were evaluated both individually and in combination with standard of care and investigational anticancer small molecules within a complex spheroid model of solid tumors. . Complex spheroids include a stromal component modeled by human endothelial cells (HUVEC) and fibroblasts modeled by human mesenchymal stem cells (MSCs). The concentration ranges selected for each drug and investigational agent were based upon clinically achievable concentrations if the clinical Cmax of the agent was known.
Compounds. The drugs and investigational agents: novobiocin (NSC847541), ART-558 (NSC835418), RP-6685 (NSC848927), peposertib (NSC802822), ceralasertib (NSC780249), elimusertib (NSC800525), camonsertib (NSC841442), AZD-1390 (NSC803789), olaparib (NSC753686), talazoparib (NSC767125), rucaparib (NSC756644), sotorasib (NSC818433), MRTX-1133 (NSC836407), SN-38 (NSC673596), topotecan (NSC609699), epotoside (NSC141540), doxorubicin (NSC123127), gemcitabine (NSC613327), 5-fluorouracil (NSC19893), paclitaxel (NSC125973), vemurafenib (NSC761431), MSA-2 (NSC828583), SN-011 (NSC837082), adavosertib (NSC754352), prexasertib (NSC758257), carboplatin (NSC241240) and oxaliplatin (NSC266046), were obtained from the National Cancer Institute (NCI) Developmental Therapeutics Program Chemical Repository (21). The FDA-approved anticancer drug set is available from the Developmental Therapeutics Program at https://dtp.cancer.gov/organization/dscb/obtaining/. […] The stock solutions were prepared in dimethyl sulfoxide (DMSO, Sigma-Aldrich, St. Louis, MO, cat. D2650), except for the platinum compounds which were prepared in saline (Quality Biological, Gaithersburg, MD, cat. 114-055-101), at 800-fold the tested concentration and stored at -70 degrees C prior to their use. All drugs and investigational agents were tested over a range starting from a high concentration at or near the clinical Cmax and decreasing in half-log increments. If the clinical Cmax for an agent had not been determined, the highest concentration tested was 10 microM, except for SN-38, which was tested at a high concentration of 1 microM.
Cell Culture. All cells were maintained in an incubator at 37 degrees C and 5% CO2 with 95% humidity. The PDC lines were cultured according to standard operating procedures established by the NCI PDMR (https://pdmr.cancer.gov). Table 3 of the manuscript, lists the cell lines along with the number of the three cell types plated to form the mct-spheroids and media for tumor cell growth. After thawing, all PDC lines, except 997537-175-T-J1-PDC and 415267-285-R-J2-PDC, were cultured in Matrigel-coated flasks prepared with a working solution of 1X Ham's F-12 nutrient mix, without supplementation (Thermo Fisher Scientific, cat. 11765054), 100 U/mL penicillin-streptomycin (Thermo Fisher Scientific, cat. 15140122), and 2.5% Matrigel (Corning Inc., Corning, NY, cat. 354248) for the first three passages. The two PDC lines 997537-175-T-J1-PDC and 415267-285-R-J2-PDC were cultured on uncoated flasks. The 857933-349-R-J2-PDC line was cultured in 6C/Colon 1B media containing advanced DMEM/F-12 (Thermo Fisher Scientific, cat. 12634028), 10 mM HEPES (Thermo Fisher Scientific, cat. 15630080), 1X GlutaMAX supplement (Thermo Fisher Scientific, cat. 35050061), 0.1 mg/mL primocin (InvivoGen, San Diego, CA, cat. ant-pm-2), 10% defined fetal bovine serum, heat inactivated (HyClone Laboratories Inc., Logan, UT, cat. SH30070.03HI), 50% L-WRN conditioned media (ATCC, cat. CRL-3276), 1.25 mM N-Acetyl-L-cysteine (Sigma-Aldrich, cat. A9165), 10 mM nicotinamide (Sigma-Aldrich, cat. N0636), 1X B-27 supplement (Thermo Fisher Scientific, cat. 17504044), 1X N-2 supplement (Thermo Fisher Scientific, cat. […]
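Also: luminescence signal used as a surrogate for viable cells; spheroids exposed to drugs for seven days before readout.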

Compound | viability, T/C (compound 0.0316 µM) | viability, T/C (compound 0.1 µM) | viability, T/C (compound 0.316 µM) | viability, T/C (compound 1 µM) | viability, T/C (compound 3.16 µM) | viability, T/C (compound 10 µM) | pIC50 | viability, T/C (compound 0.00316 µM) | viability, T/C (compound 0.01 µM) | viability, T/C (compound 0.00949 µM) | viability, T/C (compound 0.03 µM) | viability, T/C (compound 0.0949 µM) | viability, T/C (compound 0.3 µM) | viability, T/C (compound 0.949 µM) | viability, T/C (compound 3 µM) | viability, T/C (compound 0.000316 µM) | viability, T/C (compound 0.001 µM)
C=CC(=O)N1CCN(c2nc(=O)n(-c3c(C)ccnc3C(C)C)c3nc(-c4c(O)cccc4F)c(F)cc23)C(C)C1 (configuration not stated) | 88.3% and 103% and 94.8% | 92.3% and 93.2% and 91.2% | 92.7% and 102% and 101% | 99.6% and 91.8% and 112% | 103% (2×) and 104% | 101% and 89.6% and 87.3% | < 5.00 |  |  |  |  |  |  |  |  |  | 
C=CCn1c(=O)c2cnc(Nc3ccc(N4CCN(C)CC4)cc3)nc2n1-c1cccc(C(C)(C)O)n1 | 73.2% and 89.1% and 83.6% | 94% and 101% and 86.6% | 95.9% and 94.9% and 76.8% | 74.5% and 63.4% and 69.5% |  |  | < 6.00 | 98.4% and 90.3% and 83.5% | 96.6% and 88.9% and 102% |  |  |  |  |  |  |  | 
CC(=O)O[C@H]1C(=O)[C@@]2(C)[C@H]([C@H](OC(=O)c3ccccc3)[C@]3(O)C[C@H](OC(=O)[C@H](O)[C@@H](NC(=O)c4ccccc4)c4ccccc4)C(C)=C1C3(C)C)[C@]1(OC(C)=O)CO[C@@H]1C[C@@H]2O |  |  |  |  |  |  | 7.90 and 7.68 and > 8.02 |  |  | 55.5% and 66.9% and 49.9% | 33.4% and 42.3% and 41.3% | 22.8% and 35.5% and 38.7% | 32.1% and 41.2% and 22.7% | 32% and 28.6% and 22% | 30.9% and 40.5% and 33.2% |  | 
CC(C)n1c(=O)n(C)c2cnc3cc(F)c(-c4ccc(OCCCN5CCCCC5)nc4)cc3c21 | 90.1% and 93% and 37.9% | 103% and 96% and 38.9% | 100% and 83.5% and 34.2% | 97.9% and 102% and 32.9% | 85.7% and 92.1% and 37.8% | 73.3% and 87.2% and 43.2% |  |  |  |  |  |  |  |  |  |  | 
CC1COCCN1c1cc(-c2ccnn2C)c2ccnc(-c3ccn[nH]3)c2n1 (configuration not stated) | 94.7% and 97.9% and 86.9% | 62% and 63.5% and 79.7% | 64.5% and 49% and 65.9% | 44.2% and 44.4% and 50.7% | 68% and 32.4% and 51.1% | 60.6% and 53.7% and 53.6% |  |  |  |  |  |  |  |  |  |  | 
CC1COCCN1c1cc(C2(S(C)(=N)=O)CC2)nc(-c2ccnc3[nH]ccc23)n1 (configuration not stated) | 92.8% and 97.8% and 110% | 99.5% and 101% and 102% | 101% and 84.7% and 82.3% | 91.7% and 86.5% and 92.7% | 66% and 59.8% and 74.8% | 49.9% and 58.9% and 53.6% | 5.00 and < 5.00 |  |  |  |  |  |  |  |  |  | 
CCCS(=O)(=O)Nc1ccc(F)c(C(=O)c2c[nH]c3ncc(-c4ccc(Cl)cc4)cc23)c1F | 97.4% and 90.7% and 82.4% | 82.1% and 86.5% and 97.7% | 88.1% and 82.6% and 89.7% | 86.5% and 84.5% and 82.5% | 65.1% and 72.9% and 76% | 26.5% and 42% and 22.9% | 5.30 and 5.12 and 5.26 |  |  |  |  |  |  |  |  |  | 
CC[C@@]1(O)C(=O)OCc2c1cc1n(c2=O)Cc2cc3c(CN(C)C)c(O)ccc3nc2-1 | 94.5% and 75.5% and 93% | 71.6% and 61.9% (2×) |  |  |  |  | < 7.00 | 98.1% and 91.1% and 111% | 105% and 101% and 97.3% |  |  |  |  |  |  | 100% and 93.8% and 93.3% | 96.1% and 102% and 112%
CCc1c2c(nc3ccc(O)cc13)-c1cc3c(c(=O)n1C2)COC(=O)[C@]3(O)CC | 35.3% and 40.2% and 35.2% | 19.1% and 17.6% and 15.7% | 5.98% and 6.37% and 8.27% | 5.57% and 4.62% and 6.01% |  |  | 7.76 and 7.70 and 7.74 | 68.9% and 81% and 97.3% | 63.4% and 64.7% and 67% |  |  |  |  |  |  |  | 
CCc1cc2c(N3CCc4c(cc(Cn5ccnc5)cc4-c4cn(C)nc4C(F)(F)F)C3=O)cc(C)nc2c(OC)n1 | 90.5% and 98.7% and 107% | 95.7% and 82% and 107% | 90.7% and 71.5% and 94.3% | 78.7% and 91.3% and 92.2% | 69.9% and 86.2% and 67.7% | 58% and 61.9% and 41.5% | < 5.00 and 5.16 |  |  |  |  |  |  |  |  |  | 
CCc1cc2c(N3CCc4c(cc(Cn5ccnc5)cc4-c4cn(C)nc4C(F)(F)F)C3=O)ccnc2c(OC)n1 | 95.3% and 92.8% and 103% | 79.7% and 104% and 98.2% | 98.5% and 76.2% and 96.9% | 84.6% and 90.4% and 91.4% | 76.5% and 68.3% and 72.7% | 57.5% and 79.9% and 53.8% | < 5.00 |  |  |  |  |  |  |  |  |  | 
CNCc1ccc(-c2[nH]c3cc(F)cc4c3c2CCNC4=O)cc1 | 90.4% and 94.4% and 96.8% | 96.6% and 93.5% and 90.8% | 91% and 108% and 106% | 98.3% and 93.2% and 88.9% | 100% and 103% and 99.9% | 95% and 98.8% and 89.1% | < 5.00 |  |  |  |  |  |  |  |  |  | 
